Assay results from ChEMBL document CHEMBL6092220 (J Med Chem, 2024).
Active and inactive are the calls of the source. The calls are words filed in the database; no cut-off is given here.

Assays:
[1] = biological target: T1, Protein cereblon/Signal transducer and activator of transcription 3 (Homo sapiens, UniProt P40763+Q96SW2); test: PROTAC activity at his-SUMO-tagged STAT3 (127 to 688 residues)/CRBN in human HeLa cells assessed as induction of STAT3 degradation incubated for 24 hrs by TECAN SPARK microplate reader analysis relative to control; type: cell-based
[2] = biological target: T2, Protein cereblon/Signal transducer and activator of transcription 3 (Mus musculus) (UniProt P42227+Q8C7D2); test: In-vivo PROTAC activity at STAT3/CRBN in female CB17 SCID mouse assessed as reduction STAT3 level spleen at 10 mg/kg, iv measured at 24 hrs by Western blot analysis; type: functional, organism-based; design: scale not given: the % may be the effect or the level left
[3] = biological target: T2, Protein cereblon/Signal transducer and activator of transcription 3 (Mus musculus); test: In-vivo PROTAC activity at STAT3/CRBN in female CB17 SCID mouse assessed as reduction STAT3 level liver at 10 mg/kg, iv measured at 72 hrs by Western blot analysis; type: functional, organism-based; design: scale not given: the % may be the effect or the level left
[4] = biological target: T2, Protein cereblon/Signal transducer and activator of transcription 3 (Mus musculus); test: In-vivo PROTAC activity at STAT3/CRBN in female CB17 SCID mouse assessed as reduction STAT3 level spleen at 10 mg/kg, iv measured at 72 hrs by Western blot analysis; type: functional, organism-based; design: scale not given: the % may be the effect or the level left
[5] = Half life in ICR mouse at 5 mg/kg, iv; type: ADME, organism-based; conditions: in vivo
[6] = Apparent volume of distribution in ICR mouse at 5 mg/kg, iv; type: ADME, organism-based; conditions: in vivo, read-out: Vz
[7] = Clearance in ICR mouse at 5 mg/kg, iv; type: ADME, organism-based; conditions: in vivo
[8] = Clearance in ICR mouse assessed as hepatic blood flow at 5 mg/kg, iv; type: ADME, organism-based; conditions: in vivo
[9] = Half life in Sprague-Dawley rat at 5 mg/kg, iv; type: ADME, organism-based; conditions: in vivo
[10] = AUC (0 to t) in Sprague-Dawley rat at 5 mg/kg, iv; type: ADME, organism-based; conditions: in vivo
[11] = Apparent volume of distribution in Sprague-Dawley rat at 5 mg/kg, iv; type: ADME, organism-based; conditions: in vivo, read-out: Vz
[12] = Half life in Beagle dog at 1 mg/kg, iv; type: ADME, organism-based, Canis lupus familiaris; conditions: in vivo
[13] = Cmax in Beagle dog at 1 mg/kg, iv; type: ADME, organism-based, Canis lupus familiaris; conditions: in vivo
[14] = Plasma protein binding in dog assessed as unbound fraction at 10 uM; type: ADME, cell-free, Canis lupus familiaris
[15] = biological target: T3, Protein cereblon/Signal transducer and activator of transcription 6 (Homo sapiens) (UniProt P42226+Q96SW2); test: PROTAC activity at STAT6/CRBN in human PBMC cells assessed as reduction in STAT6 level upto 40 uM incubated for 20 hrs by Western blot analysis; type: cell-based
[16] = biological target: T1, Protein cereblon/Signal transducer and activator of transcription 3; test: PROTAC activity at his-SUMO-tagged STAT3 (127 to 688 residues)/CRBN in human SU-DHL-1 cells assessed as reduction in STAT3 level incubated for 20 hrs by Western blot analysis; type: cell-based
[17] = biological target: hERG (KCNH2) (Homo sapiens, UniProt Q12809); test: Inhibition of hERG at 3 uM relative to control; type: toxicity
[18] = Stability in dog Hepatocyte assessed as half life; type: ADME, cell-based, Canis lupus familiaris; conditions: hepatocytes
[19] = Stability in human Hepatocyte assessed as half life; type: ADME, cell-based; conditions: hepatocytes
[20] = biological target: Cytochrome P450 2C9 (Homo sapiens, UniProt P11712); test: Inhibition of CYP2C9 (unknown origin); type: ADME
[21] = biological target: Cytochrome P450 2C19 (Homo sapiens, UniProt P33261); test: Inhibition of CYP2C19 (unknown origin); type: ADME
[22] = biological target: Protein cereblon/Signal transducer and activator of transcription 4 (Homo sapiens, UniProt Q96SW2+Q14765); test: PROTAC activity at STAT4/CRBN in human SU-DHL-1 cells assessed as reduction in STAT4 level incubated for 20 hrs by Western blot analysis; type: cell-based; conditions: dose <= 40.0 µM
[23] = biological target: T1, Protein cereblon/Signal transducer and activator of transcription 3; test: PROTAC activity at STAT3/CRBN in human Pfeiffer cells transfected with STAT3 K658R mutant assessed as reduction in STAT3 level at 64 nM incubated for 20 hrs by Western blot analysis; type: cell-based; design: scale not given: the % may be the effect or the level left
[24] = biological target: T3, Protein cereblon/Signal transducer and activator of transcription 6 (Homo sapiens); test: PROTAC activity at STAT6/CRBN in human Pfeiffer cells transfected with STAT3 K658R mutant assessed as reduction in STAT6 level upto 40 uM incubated for 20 hrs by Western blot analysis; type: cell-based
[25] = biological target: T1, Protein cereblon/Signal transducer and activator of transcription 3; test: PROTAC activity at his-SUMO-tagged STAT3 (127 to 688 residues)/CRBN in human MOLM16 cells assessed as reduction in STAT3 level upto 40 uM incubated for 4 hrs by Western blot analysis relative to control; type: cell-based; design: scale not given: the % may be the effect or the level left
[26] = biological target: Signal transducer and activator of transcription 1-alpha/beta (Homo sapiens) (UniProt P42224); test: Binding affinity to STAT1 (unknown origin) assessed as maximum inhibition by FP assay relative to control
[27] = biological target: T2, Protein cereblon/Signal transducer and activator of transcription 3 (Mus musculus); test: In-vivo PROTAC activity at STAT3/CRBN in female CB17 SCID mouse assessed as STAT3 depletion liver at 5 mg/kg, iv measured upto 72 hrs by immunobloting analysis; type: functional, organism-based
[28] = biological target: T2, Protein cereblon/Signal transducer and activator of transcription 3 (Mus musculus); test: In-vivo PROTAC activity at STAT3/CRBN in female CB17 SCID mouse assessed as STAT3 depletion spleen at 5 mg/kg, iv measured upto 72 hrs by immunobloting analysis; type: functional, organism-based
[29] = biological target: T2, Protein cereblon/Signal transducer and activator of transcription 3 (Mus musculus); test: In-vivo PROTAC activity at STAT3/CRBN in female CB17 SCID mouse assessed as STAT3 depletion liver at 5 mg/kg, iv measured at 1 hr by immunobloting analysis; type: functional, organism-based
[30] = biological target: T2, Protein cereblon/Signal transducer and activator of transcription 3 (Mus musculus); test: In-vivo PROTAC activity at STAT3/CRBN in female CB17 SCID mouse assessed as reduction in STAT3 level spleen at 5 mg/kg, iv measured at 72 hrs by immunobloting analysis; type: functional, organism-based; design: scale not given: the % may be the effect or the level left
[31] = Drug concentration in female CB17 SCID mouse plasma at 5 mg/kg, iv measured at 1 hr by LC-MS/MS analysis; type: ADME, organism-based
[32] = Drug concentration in female CB17 SCID mouse plasma at 5 mg/kg, iv measured at 3 hrs by LC-MS/MS analysis; type: ADME, organism-based
[33] = Drug concentration in female CB17 SCID mouse plasma at 5 mg/kg, iv measured at 24 hrs by LC-MS/MS analysis; type: ADME, organism-based
[34] = Drug concentration in female CB17 SCID mouse plasma at 5 mg/kg, iv measured at 48 hrs by LC-MS/MS analysis; type: ADME, organism-based
[35] = Drug concentration in female CB17 SCID mouse liver at 5 mg/kg, iv measured at 1 hr by LC-MS/MS analysis; type: ADME, organism-based; conditions: read-out: Ct
[36] = Drug concentration in female CB17 SCID mouse liver at 5 mg/kg, iv measured at 48 hrs by LC-MS/MS analysis; type: ADME, organism-based; conditions: read-out: Ct
[37] = Antitumor activity against human MOLM16 cells xenografted in mouse assessed as tumor regression at 5 mg/kg, iv; type: functional, MOLM-16
[38] = Toxicity in mouse at 5 to 20 mg/kg, iv; type: organism-based; conditions: in vivo, dose 5-20 mg/kg
[39] = Antitumor activity against human MOLM16 cells xenografted in mouse assessed as tumor regression at 25 mg/kg, iv; type: functional, MOLM-16
[40] = Antitumor activity against human MOLM16 cells xenografted in mouse assessed as tumor regression at 25 mg/kg, iv administered twice daily; type: functional, MOLM-16

COC(=O)N1CC[C@H]2CC[C@@H](C(=O)N[C@@H](CCC(N)=O)C(=O)N[C@@H](Cc3ccc(F)c(F)c3)C(=O)N3CCC(CCC#Cc4cccc5c4CN(C4CCC(=O)NC4=O)C5=O)CC3)N2C(=O)[C@@H](NC(=O)c2cc3cc(C(F)(F)P(=O)(O)O)ccc3s2)C1 (stereo not given in full)
Emax [1]: 84%
Activity [2]: > 90%
Activity [3]: > 90%
Activity [4]: > 90%
half-life [5]: 22.1 h
Vd [6]: 0.1 L/kg
clearance [7]: 3.06 mL/h/kg
QH [8]: 0.1%
half-life [9]: 1 h
AUC(0-t) [10]: 59500 ng·h/mL
Vd [11]: 0.12 L/kg
half-life [12]: 2.3 h
Cmax [13]: 8860 ng/mL
Fu [14]: 1.7%
Activity [15]: inactive
DC50 [16]: 0.01 µM
inhibition at 3 µM [17]: 1.3%
t1/2 [18]: > 2 h
t1/2 [19]: > 2 h
IC50 [20]: > 10 µM
IC50 [21]: > 10 µM
Activity [22]: Dose-dependent-effect
Activity [23]: > 90%
Activity [24]: inactive
Activity [25]: > 95%
Imax [26]: 100%
Activity [27]: Active
Activity [28]: Active
Activity [29]: > 70%
Activity [30]: > 90%
concentration at 1 h [31]: 47300 ng/mL
concentration at 3 h [32]: 31200 ng/mL
concentration at 24 h [33]: 17100 ng/mL
concentration at 48 h [34]: 12400 ng/mL
concentration at 1 h [35]: 5850 ng/g
concentration at 48 h [36]: 1130 ng/g
Activity [37]: 76%
Activity [38]: Non-toxic
Activity [39]: 100%
Activity [40]: 100%
